Data on four molecules can be found in ChEMBL document CHEMBL3734733, “Optimization of on-resin palladium-catalyzed Sonogashira cross-coupling reaction for peptides and its use in a structure-activity relationship study of a class B GPCR ligand” (Eur J Med Chem, 2015).

Active and inactive are the calls of the source. The calls are words filed in the database; no cut-off is given here.

One experiment concerns SH-SY5Y. Nature of the experiment: Neuroprotective activity against MPP+-induced toxicity in human SH-SY5Y cells assessed as increase in cell viability at 100 nM preincubated for 4 hrs followed by incubation with MPP+ for 20 hrs measured after 24 hrs by MTS assay relative to control. It counts as functional.
Experiment [1] addresses T1, Vasoactive intestinal polypeptide receptor 1 (Homo sapiens) (UniProt P32241).
T1 sequence (whole entry): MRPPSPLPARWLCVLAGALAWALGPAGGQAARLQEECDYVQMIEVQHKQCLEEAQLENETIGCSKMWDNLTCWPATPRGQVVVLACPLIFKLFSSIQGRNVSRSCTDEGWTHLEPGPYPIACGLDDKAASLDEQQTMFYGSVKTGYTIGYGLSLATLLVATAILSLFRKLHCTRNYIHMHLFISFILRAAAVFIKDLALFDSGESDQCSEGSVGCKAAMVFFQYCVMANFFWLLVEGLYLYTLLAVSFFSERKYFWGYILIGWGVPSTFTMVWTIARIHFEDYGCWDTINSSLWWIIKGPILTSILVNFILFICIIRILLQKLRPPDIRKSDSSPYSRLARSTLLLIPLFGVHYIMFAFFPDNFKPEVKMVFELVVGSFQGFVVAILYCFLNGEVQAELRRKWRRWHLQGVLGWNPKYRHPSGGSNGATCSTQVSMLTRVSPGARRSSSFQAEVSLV
The experiment can be described thus: Activation of VPAC1 in human SH-SY5Y cells assessed as stimulation of forskolin-induced cAMP production at 10^-7 to 10^-5 M after 30 mins. The class given is functional, cell-based. Background: Cyclic AMP is a second messenger, typically raised through Gs and lowered through Gi signalling.

Experiment [2] has as its target T2, Pituitary adenylate cyclase-activating polypeptide type I receptor (Homo sapiens, UniProt P41586). Nature of the experiment: Displacement of Ac-[125I]-PACAP27 from recombinant human PAC1 expressed in CHO cells after 90 mins by gamma counting analysis. The class given is cell-based.
Target sequence in this assay (P41586 whole entry): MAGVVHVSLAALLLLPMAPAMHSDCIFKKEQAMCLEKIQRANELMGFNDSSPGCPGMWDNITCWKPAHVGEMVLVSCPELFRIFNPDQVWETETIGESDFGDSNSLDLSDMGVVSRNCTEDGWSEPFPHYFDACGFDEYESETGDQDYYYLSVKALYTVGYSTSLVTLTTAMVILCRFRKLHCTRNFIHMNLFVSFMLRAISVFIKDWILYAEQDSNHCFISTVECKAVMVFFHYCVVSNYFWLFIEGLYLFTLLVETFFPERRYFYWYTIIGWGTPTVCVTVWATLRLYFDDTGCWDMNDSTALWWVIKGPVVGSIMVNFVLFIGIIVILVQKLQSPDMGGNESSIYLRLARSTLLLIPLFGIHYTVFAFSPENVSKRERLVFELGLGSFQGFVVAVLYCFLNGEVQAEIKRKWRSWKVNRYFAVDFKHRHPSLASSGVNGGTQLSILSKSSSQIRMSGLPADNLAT
The target of experiment [3] is T2, Pituitary adenylate cyclase-activating polypeptide type I receptor. The experiment can be described thus: Activation of PAC1 in human SH-SY5Y cells assessed as stimulation of forskolin-induced cAMP production at 10^-7 to 10^-5 M after 30 mins. The class given is cell-based.
Target sequence in this assay (P41586 21-468 limits assumed): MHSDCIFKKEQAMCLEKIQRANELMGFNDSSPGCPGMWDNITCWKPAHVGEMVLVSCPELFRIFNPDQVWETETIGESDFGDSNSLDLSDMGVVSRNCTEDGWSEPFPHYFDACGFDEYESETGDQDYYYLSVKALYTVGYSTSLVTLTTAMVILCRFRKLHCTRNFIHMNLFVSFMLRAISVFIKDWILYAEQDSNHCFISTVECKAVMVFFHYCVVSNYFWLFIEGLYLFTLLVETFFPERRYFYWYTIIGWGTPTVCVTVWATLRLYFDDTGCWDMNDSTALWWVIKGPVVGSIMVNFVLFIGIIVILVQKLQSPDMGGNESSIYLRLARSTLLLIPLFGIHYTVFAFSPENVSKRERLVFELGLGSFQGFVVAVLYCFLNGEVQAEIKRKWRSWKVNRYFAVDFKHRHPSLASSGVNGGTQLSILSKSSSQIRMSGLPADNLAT
Experiment [4] concerns the target T3, Vasoactive intestinal polypeptide receptor 2 (Homo sapiens, UniProt P41587).
T3 sequence (P41587 whole entry): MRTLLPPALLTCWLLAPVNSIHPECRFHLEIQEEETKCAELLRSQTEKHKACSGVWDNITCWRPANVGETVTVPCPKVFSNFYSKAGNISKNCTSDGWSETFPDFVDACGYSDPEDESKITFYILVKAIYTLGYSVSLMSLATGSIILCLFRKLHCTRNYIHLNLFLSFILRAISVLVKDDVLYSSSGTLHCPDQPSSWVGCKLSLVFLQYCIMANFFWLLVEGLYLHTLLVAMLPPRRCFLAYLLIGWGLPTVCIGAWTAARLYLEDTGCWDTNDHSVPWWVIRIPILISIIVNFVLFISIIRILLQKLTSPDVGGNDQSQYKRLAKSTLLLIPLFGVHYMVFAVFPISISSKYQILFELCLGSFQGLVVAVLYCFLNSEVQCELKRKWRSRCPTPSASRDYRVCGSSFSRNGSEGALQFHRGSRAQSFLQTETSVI
The experiment can be described thus: Displacement of Ac-[125I]-PACAP27 from recombinant human VPAC2 expressed in CHO cells after 90 mins by gamma counting analysis. It counts as cell-based.

Experiment [5] concerns the target T4, Vasoactive intestinal polypeptide receptor 2 (Homo sapiens) (UniProt P41587).
T4 sequence (whole entry): T3 sequence (P41587 whole entry)
The experiment can be described thus: Activation of VPAC2 in human SH-SY5Y cells assessed as stimulation of forskolin-induced cAMP production at 10^-7 to 10^-5 M after 30 mins. The class given is functional, cell-based.

For experiment [6], the target named is T5, Vasoactive intestinal polypeptide receptor 1 (Homo sapiens, UniProt P32241).
T5 sequence (P32241 whole entry): T1 sequence (whole entry)
The experiment can be described thus: Displacement of Ac-[125I]-PACAP27 from recombinant human VPAC1 expressed in CHO cells after 90 mins by gamma counting analysis. The class given is cell-based.

Regarding `CC[C@H](C)[C@H](NC(=O)CNC(=O)[C@H](CC(=O)O)NC(=O)[C@H](CO)NC(=O)[C@@H](N)Cc1cnc[nH]1)C(=O)N[C@@H](Cc1ccccc1)C(=O)N[C@H](C(=O)N[C@@H](CC(=O)O)C(=O)N[C@@H](CO)C(=O)N[C@@H](Cc1ccc(O)cc1)C(=O)N[C@@H](CO)C(=O)N[C@@H](CCCNC(=N)N)C(=O)N[C@@H](Cc1ccc(O)cc1)C(=O)N[C@@H](CCCNC(=N)N)C(=O)N[C@@H](CCCCN)C(=O)N[C@@H](CCC(N)=O)C(=O)N[C@@H](CCSC)C(=O)N[C@@H](C)C(=O)N[C@H](C(=O)N[C@@H](CCCCN)C(=O)N[C@@H](CCCCN)C(=O)N[C@@H](Cc1ccc(O)cc1)C(=O)N[C@@H](CC(C)C)C(=O)N[C@@H](C)C(=O)N[C@@H](C)C(=O)N[C@H](C(=O)N[C@@H](CC(C)C)C(N)=O)C(C)C)C(C)C)[C@@H](C)O`, in the experiment on SH-SY5Y, the Activity came to 85%.
As to `CC[C@H](C)[C@H](NC(=O)CNC(=O)[C@H](CC(=O)O)NC(=O)[C@H](CO)NC(=O)[C@@H](N)Cc1cnc[nH]1)C(=O)N[C@@H](Cc1ccc(C#Cc2ccccc2)cc1)C(=O)N[C@H](C(=O)N[C@@H](CC(=O)O)C(=O)N[C@@H](CO)C(=O)N[C@@H](Cc1ccc(O)cc1)C(=O)N[C@@H](CO)C(=O)N[C@@H](CCCNC(=N)N)C(=O)N[C@@H](Cc1ccc(O)cc1)C(=O)N[C@@H](CCCNC(=N)N)C(=O)N[C@@H](CCCCN)C(=O)N[C@@H](CCC(N)=O)C(=O)N[C@@H](CCSC)C(=O)N[C@@H](C)C(=O)N[C@H](C(=O)N[C@@H](CCCCN)C(=O)N[C@@H](CCCCN)C(=O)N[C@@H](Cc1ccc(O)cc1)C(=O)N[C@@H](CC(C)C)C(=O)N[C@@H](C)C(=O)N[C@@H](C)C(=O)N[C@H](C(=O)N[C@@H](CC(C)C)C(N)=O)C(C)C)C(C)C)[C@@H](C)O`, the result in experiment [1], in experiment [3] and in experiment [5] was Active. Besides, the IC50 in experiment [2] (read-out: IC50) is 53 nM; in experiment [2] (read-out: pIC50 (converted)) it was 44.7 nM; in experiment [4] (read-out: IC50) it was 53 nM; in experiment [6] (read-out: IC50), 12 nM. Also, the Activity in the experiment with SH-SY5Y is 85%.
Regarding `CC[C@H](C)[C@H](NC(=O)CNC(=O)[C@H](CC(=O)O)NC(=O)[C@H](CO)NC(=O)[C@@H](N)Cc1cnc[nH]1)C(=O)N[C@@H](Cc1ccc(C#Cc2ccc(F)cc2)cc1)C(=O)N[C@H](C(=O)N[C@@H](CC(=O)O)C(=O)N[C@@H](CO)C(=O)N[C@@H](Cc1ccc(O)cc1)C(=O)N[C@@H](CO)C(=O)N[C@@H](CCCNC(=N)N)C(=O)N[C@@H](Cc1ccc(O)cc1)C(=O)N[C@@H](CCCNC(=N)N)C(=O)N[C@@H](CCCCN)C(=O)N[C@@H](CCC(N)=O)C(=O)N[C@@H](CCSC)C(=O)N[C@@H](C)C(=O)N[C@H](C(=O)N[C@@H](CCCCN)C(=O)N[C@@H](CCCCN)C(=O)N[C@@H](Cc1ccc(O)cc1)C(=O)N[C@@H](CC(C)C)C(=O)N[C@@H](C)C(=O)N[C@@H](C)C(=O)N[C@H](C(=O)N[C@@H](CC(C)C)C(N)=O)C(C)C)C(C)C)[C@@H](C)O`, the outcome in experiment [1], in experiment [3] and in experiment [5] was Active. Further, the IC50 was determined as 57 nM in experiment [2] (read-out: IC50), 36 nM in experiment [4] (read-out: IC50) and 9 nM in experiment [6] (read-out: IC50). The Activity in the experiment on SH-SY5Y is on record as 85%.
On to `CC[C@H](C)[C@H](NC(=O)CNC(=O)[C@H](CC(=O)O)NC(=O)[C@H](CO)NC(=O)[C@@H](N)Cc1cnc[nH]1)C(=O)N[C@@H](Cc1ccc(-c2ccccc2)cc1)C(=O)N[C@H](C(=O)N[C@@H](CC(=O)O)C(=O)N[C@@H](CO)C(=O)N[C@@H](Cc1ccc(O)cc1)C(=O)N[C@@H](CO)C(=O)N[C@@H](CCCNC(=N)N)C(=O)N[C@@H](Cc1ccc(O)cc1)C(=O)N[C@@H](CCCNC(=N)N)C(=O)N[C@@H](CCCCN)C(=O)N[C@@H](CCC(N)=O)C(=O)N[C@@H](CCSC)C(=O)N[C@@H](C)C(=O)N[C@H](C(=O)N[C@@H](CCCCN)C(=O)N[C@@H](CCCCN)C(=O)N[C@@H](Cc1ccc(O)cc1)C(=O)N[C@@H](CC(C)C)C(=O)N[C@@H](C)C(=O)N[C@@H](C)C(=O)N[C@H](C(=O)N[C@@H](CC(C)C)C(N)=O)C(C)C)C(C)C)[C@@H](C)O`, for which the IC50 in experiment [4] (read-out: pIC50 (converted)) is 22.9 nM; in experiment [6] (read-out: pIC50 (converted)) it was 14.1 nM.
